In PMC6273472, “Design, Synthesis and Biological Evaluation of 6-(2,6-Dichloro-3,5-dimethoxyphenyl)-4-substituted-1H-indazoles as Potent Fibroblast Growth Factor Receptor Inhibitors” (Molecules, 2016):

Tests used:
FGFR2 = system: FGFR2; parameters: method as in PMID 21936542; settings: molecular level; cited from earlier work
FGFR3 = system: FGFR3; parameters: method as in PMID 21936542; settings: molecular level; cited from earlier work
FGFR4 = system: FGFR4; parameters: method as in PMID 21936542; settings: molecular level; cited from earlier work
FGFR1 = FGFR1 (Homo sapiens, UniProt P11362); experiment: ELISA kinase assay (FGFR1 enzymatic assay); assay type: biochemical
Sequence of FGFR1 (P11362 22-822): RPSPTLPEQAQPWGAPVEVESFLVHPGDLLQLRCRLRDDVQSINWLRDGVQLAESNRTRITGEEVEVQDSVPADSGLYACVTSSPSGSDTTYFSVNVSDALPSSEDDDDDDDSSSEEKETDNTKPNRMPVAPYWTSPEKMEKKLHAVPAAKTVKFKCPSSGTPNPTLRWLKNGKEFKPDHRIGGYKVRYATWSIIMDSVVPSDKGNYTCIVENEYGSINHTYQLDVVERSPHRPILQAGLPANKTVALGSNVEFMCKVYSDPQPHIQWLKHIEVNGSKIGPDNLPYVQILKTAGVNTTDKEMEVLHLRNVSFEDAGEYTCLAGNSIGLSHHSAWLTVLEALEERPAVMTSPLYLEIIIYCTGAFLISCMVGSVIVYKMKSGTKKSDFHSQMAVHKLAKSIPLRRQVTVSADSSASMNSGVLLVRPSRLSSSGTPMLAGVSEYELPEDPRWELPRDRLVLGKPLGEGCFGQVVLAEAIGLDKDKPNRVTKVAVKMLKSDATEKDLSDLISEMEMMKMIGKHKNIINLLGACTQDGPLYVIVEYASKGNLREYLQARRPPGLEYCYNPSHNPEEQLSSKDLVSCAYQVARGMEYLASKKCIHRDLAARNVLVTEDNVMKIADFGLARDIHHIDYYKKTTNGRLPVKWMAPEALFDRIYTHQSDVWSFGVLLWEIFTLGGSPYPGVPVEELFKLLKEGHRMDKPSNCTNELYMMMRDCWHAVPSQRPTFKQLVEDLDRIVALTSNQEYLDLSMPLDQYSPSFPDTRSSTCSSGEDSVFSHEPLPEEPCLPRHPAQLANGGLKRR
Experimental: The effects of compounds on the activities of FGFR1 kinases were determined using enzyme-linked immunosorbent assays (ELISAs) with purified recombinant proteins. Briefly, 20 μg/mL poly (Glu, Tyr)4:1 (Sigma, St. Louis, MO, USA) was pre-coated in 96-well plates as a substrate. A 50-μL aliquot of 10 μmol/L ATP solution diluted in kinase reaction buffer (50 mmol/L HEPES [pH 7.4], 50 mmol/L MgCl2, 0.5 mmol/L MnCl2, 0.2 mmol/L Na3VO4, and 1 mmol/L DTT) was added to each well; 1 μL of various concentrations of compounds diluted in 1% DMSO (v/v) (Sigma) were then added to each reaction well. DMSO (1%, v/v) was used as the negative control. The kinase reaction was initiated by the addition of purified tyrosine kinase proteins diluted in 49 μL of kinase reaction buffer. After incubation for 60 min at 37 °C, the plate was washed three times with phosphate-buffered saline (PBS) containing 0.1% Tween 20 (T-PBS). Anti-phosphotyrosine (PY99) antibody (100 μL; 1:500, diluted in 5 mg/mL BSA T-PBS) was then added. After a 30-min incubation at 37 °C, the plate was washed three times, and 100 μL horseradish peroxidase-conjugated goat anti-mouse IgG (1:2000, diluted in 5 mg/mL BSA T-PBS) was added. The plate was then incubated at 37 °C for 30 min and washed 3 times. A 100-μL aliquot of a solution containing 0.03% H2O2 and 2 mg/mL o-phenylenediamine in 0.1 mol/L citrate buffer (pH 5.5) was added. The reaction was terminated by the addition of 50 μL of 2 mol/L H2SO4 as the color changed, and the plate was analyzed using a multi-well spectrophotometer (SpectraMAX 190, Molecular Devices, Palo Alto, CA, USA) at 490 nm. […] The IC50 values were calculated from the inhibition curves in two separate experiments.

[1] = system: tumors harboring FGFR signaling aberrations; settings: phase I trial, patients with tumors harboring FGFR signaling aberrations; cited from earlier work

Molecule | IC50 (FGFR2) | IC50 (FGFR3) | IC50 (FGFR4) | Enzyme Inhibition (%) (FGFR1; 0.1 μmol/L compound) | Enzyme Inhibition (%) (FGFR1; 1 μmol/L compound) | on-target activity observed in patients [1]
CCN1CCN(c2ccc(Nc3cc(N(C)C(=O)Nc4c(Cl)c(OC)cc(OC)c4Cl)ncn3)cc2)CC1 [NVP-BGJ398, 3-(2,6-dichloro-3,5-dimethoxy-phenyl)-1-{6-[4-(4-ethyl-piperazin-1-yl)-phenylamino]-pyrimidin-4-yl}-1-methyl-urea] | 1.4 nM | […] | […] | – | – | –
AZD4547 [reference compound] | – | – | – | 93.2% | 94.3% | five of 20
